Experimental findings from ChEMBL document CHEMBL1177804, “Synthesis and preliminary evaluation of neuroprotection of celastrol analogues in PC12 cells” (Bioorg Med Chem Lett, 2010) are described below.

The source made the active and inactive calls. The rule behind the calls is not given here.

Test [1] deals with LNCaP. Description: Antitumor activity against human LNCAP cells. The format is functional, cell-based.
In test [2] the test system is PC-12. The experiment in a line: Cytoprotective activity against t-BPH-induced cell damage in rat PC12 cells assessed as cell viability at 0.1 uM. The test is classed as functional. The settings on record: read-out: Activity.
The subject of test [3] is PC-12. Description: Cytoprotective activity against t-BPH-induced cell damage in rat PC12 cells assessed as cell viability at 0.8 uM. The test is classed as functional, cell-based.
For test [4], the system named is PC-12. Description: Cytoprotective activity against t-BPH-induced cell damage in rat PC12 cells assessed as cell viability at 1.6 uM. The format is functional, cell-based.
Test [5] concerns PC-12. Description: Cytoprotective activity against t-BPH-induced cell damage in rat PC12 cells assessed as cell viability. The format is functional, cell-based.
The nature of test [6]: Antitumor activity against mouse SW1 cells. The test is classed as functional, cell-based.
Test [7] concerns PC-12. Description: Cytoprotective activity in rat PC12 cells assessed as protection against t-BHP-induced cell damage at 0.4 uM. The test is classed as functional.
For test [8], the system named is PC-12. Description: Neuroprotective activity in t-BHP-induced damage in rat PC12 cells assessed as induction of Hsp70 expression by Western blotting. The format is functional, cell-based. (Immunoblotting shows a protein as a band on a membrane.)
The species entered for test [9] is Rattus norvegicus. Description: Cytoprotective activity against H2O2-induced damage in rat RINm cells. The format is functional, cell-based.

What is called IC50 is the point on the concentration scale where inhibition reaches its midpoint. Broadly, the EC50 is the concentration giving half of the maximal effect. The low end stands for a more potent agent, the high end for a less potent agent.

For the compound `CC1=C(O)C(=O)C=C2C1=CC=C1[C@@]2(C)CC[C@@]2(C)[C@@H]3C[C@](C)(C(=O)O)CC[C@]3(C)CC[C@]12C` [CELASTROL], the half-inhibitory concentration (IC50) was 2500 nM in [1] and 3150 nM in [5]. In [2], the viability at 0.1 µM was 65%. Also, the outcome in test [3] was inactive. For the same compound, the outcome in test [4] was Active.
`CCCOC(=O)[C@]1(C)CC[C@]2(C)CC[C@]3(C)C4=CC=C5C(=CC(=O)C(O)=C5C)[C@]4(C)CC[C@@]3(C)[C@@H]2C1`: the result in test [4] was Active.
Regarding `COC(=O)[C@]1(C)CC[C@]2(C)CC[C@]3(C)C4=CC=C5C(=CC(=O)C(O)=C5C)[C@]4(C)CC[C@@]3(C)[C@@H]2C1` [PRISTIMERIN], the EC50 in test [6] is < 100 nM.
`CC1=C(O)C(=O)C=C2C1=CC=C1[C@@]2(C)CC[C@@]2(C)[C@@H]3C[C@](C)(C(=O)N4CCN(C)CC4)CC[C@]3(C)CC[C@]12C`: the Activity result in test [4] is “Dose-dependent effect”.
With `CC1=C(O)C(=O)C=C2C1=CC=C1[C@@]2(C)CC[C@@]2(C)[C@@H]3C[C@](C)(C(=O)OCc4ccccc4)CC[C@]3(C)CC[C@]12C`, in test [6], the EC50 came to 300 nM.
Turning to `CC1=C(OC(=O)c2nc(C)c(C)nc2C)C(=O)C=C2C1=CC=C1[C@@]2(C)CC[C@@]2(C)[C@@H]3C[C@](C)(C(=O)O)CC[C@]3(C)CC[C@]12C`, the Activity in test [7] is 76%; in test [8], “Dose-dependent effect”.
As for `CC1=C(OC(=O)CCCCC2CCSS2)C(=O)C=C2C1=CC=C1[C@@]2(C)CC[C@@]2(C)[C@@H]3C[C@](C)(C(=O)O)CC[C@]3(C)CC[C@]12C` (some centres undefined), in test [9], the outcome was Active. Moreover, in test [7], the result was inactive.
As for `CC1=C(O)/C(=N/O)C=C2C1=CC=C1[C@@]2(C)CC[C@@]2(C)[C@@H]3C[C@](C)(C(=O)O)CC[C@]3(C)CC[C@]12C`, the result in test [4] was Active.
